Test results taken from PMC6010133, “Synthesis and biological evaluation of N-arylpiperazine derivatives of 4,4-dimethylisoquinoline-1,3(2H,4H)-dione as potential antiplatelet agents” (Journal of Enzyme Inhibition and Medicinal Chemistry, 2018).
Values after ≈ are worked out from the molar mass of the structure shown.

Key:
alpha 2B-AR = target: T1, alpha 2B-AR (Homo sapiens, UniProt P18089); assay: Intrinsic activity assay, antagonist mode, cells with stable expression of the α2B-adrenoceptor; type: cell-based; settings: antagonist potency, read-out: Antagonist mode (IC50 ± SEM)
T1 sequence (P18089 1-450): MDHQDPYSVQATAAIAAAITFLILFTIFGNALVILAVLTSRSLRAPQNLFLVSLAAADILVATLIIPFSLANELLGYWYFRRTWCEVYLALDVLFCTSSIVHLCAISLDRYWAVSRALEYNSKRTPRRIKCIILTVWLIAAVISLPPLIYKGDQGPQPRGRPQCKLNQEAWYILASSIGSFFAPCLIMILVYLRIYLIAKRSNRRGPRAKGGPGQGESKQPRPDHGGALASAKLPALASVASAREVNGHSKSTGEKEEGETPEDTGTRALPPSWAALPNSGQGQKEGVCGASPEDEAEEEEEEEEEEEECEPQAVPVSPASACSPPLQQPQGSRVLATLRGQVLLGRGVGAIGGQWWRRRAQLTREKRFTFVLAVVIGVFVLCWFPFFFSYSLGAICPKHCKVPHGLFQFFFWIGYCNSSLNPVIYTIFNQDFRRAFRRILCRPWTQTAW
Experimental: An intrinsic activity assay was performed according to the instructions of the manufacturer of the assay kit containing ready-to-use cells with stable expression of the α2A-adrenoceptor (In-vitrogen, Life Technologies, Carlsbad, CA, USA) or α2B-adrenoceptor (PerkinElmer, Inc, Waltham, MA, USA).
Considering that a potent blockade of alpha 2B-ARs is required for the antiplatelet effect[8] ^, [9] we began an assessment of a pharmacological profile of all the synthesized molecules (3–11) with the evaluation of their alpha 2B-ARs antagonistic properties.

alpha 1-ARs = assay: Radioligand binding assay, displacement of [3H]prazosin on rat cerebral cortex; settings: read-out: Affinity for alpha 1-ARs Ki ± SD
Experimental: The affinity of the obtained compounds was evaluated by radioligand binding assays (the ability to displace [3H] prazosin and [3H]clonidine from a1- and a2-AR, respectively) on rat cerebral cortex. The brains are homogenised in 20 volumes of an ice-cold 50 mM Tris–HCl buffer (pH 7.6) and is centrifuged at 20,000 g for 20 min (0–4 °C). The cell pellet is resus-pended in the Tris–HCl buffer and centrifuged again. Radioligand binding assays are performed in plates (MultiScreen/Millipore). The final incubation mixture (final volume 300 μL) consisted of 240 µl of the membrane suspension, 30 μL of [3H]prazosin (0.2 nM) or [3H]clonidine (2 nM) solution and 30 μL of the buffer containing seven to eight concentrations (1.0^−11 to 1.0^−4 M) of the tested compounds. For measuring the unspecific binding, phentolamine, 10 µM (in the case of [3H]prazosin) and clonidine, 10 μM (in the case of [3H]clonidine) are applied. The incubation is terminated by rapid filtration over glass fiber filters (Whatman GF/C) using a vacuum manifold (Millipore). The filters are then washed twice with the assay buffer and placed in scintillation vials with a liquid scintillation cocktail. Radioactivity was measured in a WALLAC 1409 DSA liquid scintillation counter. All the assays were performed in duplicate.
Subsequently, we determined the selectivity vs. alpha 1-adrenoreceptor (Table 4). The final compounds 3–11 were submitted to a radioligand binding assay, measuring the ability to displace [^3H] prazosin from alpha 1-ARs, in the rat cerebral cortex. […] On the other hand, the introduction of a hydrophobic group into meta position of the phenylpiperazine ring (3, 4, 5, 6) caused a relatively weaker decrease. […] The incorporation of a bulky substituents such as; 2,2-dimethylbenzo[d][1,3]dioxole (9), benzo[d]oxazol-2(3H)-one (10), 2H-benzo[b][1,4]oxazin-3(4H)-one (11) maintained the affinity for alpha1-ARs.

[1] = system: whole rat blood aggregation induced by ADP and adrenaline; assay: In vitro whole blood aggregation test induced by ADP and adrenaline (Multiplate); type: cell-based; settings: for IC50: whole rat blood, ADP and adrenaline 1.6 µM + 50 µM, read-out: B (ADP + A) IC50
Experimental: (§1) In vitro aggregation tests were conducted using freshly collected whole blood with Multiplate platelet function analyzer (Roche Diagnostics Polska Sp. z o.o., Warsaw, Poland), the five-channel aggregometer based on measurements of electric impedance. The Multiplate analyzer allows the duplicate measurement with dual electrode probes. Blood was drawn from carotid of rats with hirudin blood tube (Roche Diagnostic). 300 μL of hirudin anticoagulated blood was mixed with 300 μL pre-warmed isotonic saline solution containing studied compound in DMSO or DMSO (0.1% final) and pre-incubated for 3 min at 37 °C with continuous stirring. The agonists (ADPtest, COLtest, Roche Diagnostic) were diluted using isotonic sterile NaCl solution. Aggregation was induced by adding collagen (final concentration 1.6 µg/mL), or adrenaline and subthreshod concentration of ADP (final concentration 50 µM + 1.6 µM). Activated platelet function was recorded for 6 min. The Multiplate software analyzed the area under the curve of the clotting process of each measurement and calculated the mean values.
(§2) Data were presented as Mean ± SEM. Statistical comparisons were made by the analysis of variance (ANOVA) and significance of the differences between control group and treated groups was determined by Dunnet post hoc test. p < .05 was considered significant.
(§3) Based on the aforementioned results, the most interesting compounds (3, 4, 9, and 10) were selected for further studies. In order to evaluate the anti-platelet effects of the new compounds in vitro, freshly isolated rat whole blood was incubated with selected compounds (3–100 μM) or vehicle (DMSO), and the aggregation responses were evaluated with multiplate whole blood aggregometer by measuring impedance change. Platelet aggregation was induced by collagen or sub-threshold concentration of ADP and adrenaline. ARC-239 was used as a reference compound.
Combining adrenaline with the sub-threshold concentration of ADP produced a maximal aggregation response. The adrenaline-mediated amplification of ADP-stimulated aggregation was attenuated when rat blood was pre-incubated with 3, 9, 10, and ARC-239.

[2] = system: whole rat blood aggregation induced by collagen; assay: In vitro whole blood aggregation test induced by collagen (Multiplate); type: cell-based; settings: for anti-platelet efficacy at lower concentration: compound at 30 μM; for IC50: whole rat blood, collagen 1.6 µg/mL
Experimental: as §1, §2, §3

[3] = Metabolic stability (liver microsomes, human); type: in vitro ADME
Experimental: (§4) The in vitro bioavailability assays were performed by Eurofins Panlabs Inc. (St Charles, USA) according to the methods reported in publications listed below:
Microsomal stability: Obach, R.S et al. (1997) J Pharmacol Exp Ther, 283:[…][35].
(§5) Concerning the described above results, for the most promising compound 3, we performed early in vitro bioavailability assays, including aqueous solubility, human plasma protein binding, human liver microsomes stability, and Caco-2 permeability (Eurofins Bioavailability panel).

[4] = Aqueous solubility (Eurofins bioavailability panel); type: physicochemical; settings: kinetic from dmso stock
Experimental: as §4
Solubility: Lipinski, C.A et al. (2001) Adv Drug Del Rev, 46:3–26[32],
as §5

Caco-2 permeability = type: in vitro ADME; settings: human; Caco-2, pH 6.5/7.4; 1.0E-05 M
Experimental: as §4
Caco-2 permeability: Hidalgo, I.J et al. (1989) Gastroenterology, 96:736–749[34],
as §5

[5] = Protein binding (plasma, human); type: in vitro ADME; settings: 1.0E-05 M
Experimental: as §4
Protein binding: Banker, M.J et al. (2003) J. Pharm. Sci., 92:967–974[33],
as §5

SMILES	IC50 (alpha 2B-AR)	Ki (alpha 1-ARs)	IC50 [1]	anti-platelet efficacy at lower concentration ([2]; collagen-induced)	IC50 [2]	further results
CC1(C)C(=O)N(CCN2CCN(c3cccc(C(F)(F)F)c3)CC2)C(=O)c2ccccc21 [Compound 5, 4,4-Dimethyl-2–(2-(4–(3-(trifluoromethyl)phenyl)piperazin-1-yl)ethyl)isoquinoline-1,3(2H,4H)-dione]	> 1000 nM	703 ± 1 nM	–	–	–	–
CC1(C)Oc2cccc(N3CCN(CCN4C(=O)c5ccccc5C(C)(C)C4=O)CC3)c2O1 [Compound 9, 2–(2-(4–(2,2-Dimethylbenzo[d][1,3]dioxol-4-yl)piperazin-1-yl)ethyl)-4,4-dimethylisoquinoline-1,3(2H,4H)-dione]	47 ± 12.8 nM	30 ± 0.2 nM	54.4 ± 5.4 µM	significant anti-platelet efficacies	27.4 ± 5.3 µM	platelet aggregation attenuated to ([2]; collagen-induced, compound at 100 μM): 59.3%
CC1(C)C(=O)N(CCN2CCN(c3cccc4[nH]c(=O)oc34)CC2)C(=O)c2ccccc21 [Compound 10, 4,4-Dimethyl-2–(2-(4–(2-oxo-2,3-dihydrobenzo[d]oxazol-7-yl)piperazin-1-yl)ethyl)isoquinoline-1,3(2H,4H)-dione]	61 ± 22.5 nM	10.3 ± 0.3 nM	76.5 ± 5.8 µM	–	–	–
COc1ccccc1N1CCN(CCN2C(=O)c3ccccc3C(C)(C)C2=O)CC1 [ARC-239, reference compound]	8.4 ± 3.2 nM	0.3 nM	63.9 ± 21.3 µM	–	20.7 ± 14.7 µM	–
CC1(C)C(=O)N(CCN2CCN(c3cccc4c3OCC(=O)N4)CC2)C(=O)c2ccccc21 [Compound 11, 4,4-Dimethyl-2–(2-(4–(3-oxo-3,4-dihydro-2H-benzo[b][1,4]oxazin-8-yl)piperazin-1-yl)ethyl)isoquinoline-1,3(2H,4H)-dione]	> 1000 nM	3 ± 0.1 nM	–	–	–	–
CC1(C)C(=O)N(CCN2CCN(c3cccc(F)c3)CC2)C(=O)c2ccccc21 [Compound 3, 2–(2-(4–(3-Fluorophenyl)piperazin-1-yl)ethyl)-4,4-dimethylisoquinoline-1,3(2H,4H)-dione]	61 ± 25.4 nM	30 ± 1 nM	20.5 ± 7.1 µM	significant anti-platelet efficacies	26.9 ± 18.8 µM	half-life at 100 nM ([3]; 1.0E-07 M): 14.1 min; microsomal CLint at 100 nM ([3]; 1.0E-07 M, read-out: Intrinsic clearance): 14 µL/min/mg; % Compound remaining ([3]; incubation time 0 minutes): 100.0%; % Compound remaining ([3]; incubation time 15 minutes): 49%; % Compound remaining ([3]; incubation time 30 minutes): 18%; % Compound remaining ([3]; incubation time 45 minutes): 8%; % Compound remaining ([3]; incubation time 60 minutes): 6%; solubility ([4]; PBS, pH 7.4, aqueous buffer): 5.4 µM (≈ 2.14 µg/mL); solubility ([4]; fassgf or other biorelevant, simulated intestinal fluid, test concentration 2.0E-04 M): 68 µM (≈ 26.9 µg/mL); solubility ([4]; simulated gastric fluid): 151 µM (≈ 59.7 µg/mL); Papp A→B at 10 µM (Caco-2 permeability): 7.7 ×10⁻⁶ cm/s; Papp B→A at 10 µM (Caco-2 permeability): 2.6 ×10⁻⁶ cm/s; % Protein bound [5]: 99%
CC1(C)C(=O)N(CCN2CCN(c3cccc(O)c3)CC2)C(=O)c2ccccc21 [Compound 7, 2–(2-(4–(3-hydroxyphenyl)piperazin-1-yl)ethyl)-4,4-dimethylisoquinoline-1,3(2H,4H)-dione]	758 ± 160 nM	81.7 ± 5.5 nM	–	–	–	–
COc1cccc(N2CCN(CCN3C(=O)c4ccccc4C(C)(C)C3=O)CC2)c1 [Compound 6, 2–(2-(4–(3-Methoxyphenyl)piperazin-1-yl)ethyl)-4,4-dimethylisoquinoline-1,3(2H,4H)-dione]	> 1000 nM	78.4 ± 3.8 nM	–	–	–	–
CC1(C)C(=O)N(CCN2CCN(c3cccc(Cl)c3)CC2)C(=O)c2ccccc21 [Compound 4, 2–(2-(4–(3-Chlorophenyl)piperazin-1-yl)ethyl)-4,4-dimethylisoquinoline-1,3(2H,4H)-dione]	251 ± 71 nM	93 ± 2 nM	–	significant anti-platelet efficacies	34.5 ± 2.5 µM	inhibition against ADP and adrenaline induced blood aggregation ([1]; up to 100 μM): did not exhibit any significant inhibition
CC1(C)C(=O)N(CCN2CCN(c3ncccn3)CC2)C(=O)c2ccccc21 [Compound 8, 4,4-Dimethyl-2–(2-(4-(pyrimidin-2-yl)piperazin-1-yl)ethyl)isoquinoline-1,3(2H,4H)-dione]	> 1000 nM	1500 ± 100 nM	–	–	–	–
